Experimental findings from patent US12540129B2, “KIF18A inhibitors” (AMGEN INC., priority 2019, dated 2026) are described below.

For the assay, the target named is T1, Recombinant human KIF18A (1-467 His-tagged) protein (Homo sapiens, UniProt Q8NI77).
T1 construct: Recombinant human KIF18A (1-467 His-tagged) protein; His; made in house
T1 sequence (Q8NI77 1-467): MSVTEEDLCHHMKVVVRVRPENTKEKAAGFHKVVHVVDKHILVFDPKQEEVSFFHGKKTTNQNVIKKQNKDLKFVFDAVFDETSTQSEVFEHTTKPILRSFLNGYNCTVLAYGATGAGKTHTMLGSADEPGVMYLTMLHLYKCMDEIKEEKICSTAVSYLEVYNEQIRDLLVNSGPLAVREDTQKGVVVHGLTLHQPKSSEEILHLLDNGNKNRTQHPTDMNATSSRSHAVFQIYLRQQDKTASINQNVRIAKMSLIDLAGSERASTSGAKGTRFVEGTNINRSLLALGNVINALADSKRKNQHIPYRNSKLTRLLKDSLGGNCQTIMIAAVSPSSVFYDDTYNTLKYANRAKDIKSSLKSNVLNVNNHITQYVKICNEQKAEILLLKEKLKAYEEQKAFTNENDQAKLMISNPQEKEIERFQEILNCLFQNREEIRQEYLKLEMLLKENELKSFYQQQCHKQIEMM
T1 sequence (P02550 whole entry partner): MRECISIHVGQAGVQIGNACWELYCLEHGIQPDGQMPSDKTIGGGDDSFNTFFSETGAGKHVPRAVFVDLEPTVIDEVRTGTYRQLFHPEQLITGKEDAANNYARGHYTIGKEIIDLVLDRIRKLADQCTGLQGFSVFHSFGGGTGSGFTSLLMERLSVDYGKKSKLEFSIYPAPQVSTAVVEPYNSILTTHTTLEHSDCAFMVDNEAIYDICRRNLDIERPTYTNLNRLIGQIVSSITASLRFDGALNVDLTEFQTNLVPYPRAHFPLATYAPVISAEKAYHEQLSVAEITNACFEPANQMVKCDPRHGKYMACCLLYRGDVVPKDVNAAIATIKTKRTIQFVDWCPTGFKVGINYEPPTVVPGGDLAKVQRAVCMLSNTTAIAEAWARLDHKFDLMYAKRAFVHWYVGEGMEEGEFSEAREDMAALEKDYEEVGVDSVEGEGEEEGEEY
T1 sequence (P02554 whole entry partner): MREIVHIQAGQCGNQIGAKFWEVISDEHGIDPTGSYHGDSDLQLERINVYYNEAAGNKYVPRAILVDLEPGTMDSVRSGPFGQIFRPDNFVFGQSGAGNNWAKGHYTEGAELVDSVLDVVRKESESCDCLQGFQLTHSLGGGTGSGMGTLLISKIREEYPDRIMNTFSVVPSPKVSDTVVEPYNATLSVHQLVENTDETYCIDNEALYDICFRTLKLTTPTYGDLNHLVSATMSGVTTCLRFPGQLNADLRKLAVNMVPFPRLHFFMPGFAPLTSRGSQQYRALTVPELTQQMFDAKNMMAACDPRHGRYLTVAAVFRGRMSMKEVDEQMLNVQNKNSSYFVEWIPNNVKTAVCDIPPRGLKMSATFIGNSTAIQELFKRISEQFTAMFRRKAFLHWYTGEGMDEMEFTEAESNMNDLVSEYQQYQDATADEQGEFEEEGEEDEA
Description: KIF18A Enzyme Assay: microtubule-stimulated ATPase activity (ADP-Glo). In kind it is biochemical. The following applies: 30 nM KIF18A, 75 μM ATP. The source says:
KIF18A Enzyme Assay: Microtubule-stimulated ATPase activity assay is used to measure KIF18A enzyme activity after treatment with compound. Compounds were 2-fold serially diluted in DMSO (Sigma Inc) over 22-point concentration range. Recombinant human KIF18A (1-467 His-tagged) protein was expressed using a baculovirus system and purified by affinity chromatography by Amgen Inc. Concentrations of KIF18A protein, microtubules (MT), and ATP in the reaction were optimized for standardized homogenous enzyme assay using ADP-Glorm Kinase/ATPase Assay Kit (Promega Inc). The assay measures ADP formed from the ATPase reaction. […] Read luminescence using EnVision microplate reader with ultra-luminescence module (Perkin Elmer Inc). Concentration-response curve-fitting and IC50 determination was performed using Genedata Screener Software (Standard 15.0.1, Genedata Inc) with a four-parameter logistic regression fit model.
Table A provides data for compounds exemplified in the present application and priority document thereof, as representative compounds of the present invention, as follows: chemical name (as named by either ACD software or ChemDraw (Professional 15.0)) and biological data (IC50 in μM). Ex. # refers to Example No.
A general note: ADP-Glo first removes unused ATP, then detects ADP through luciferase.
On to `O=C(Nc1cccc(S(=O)(=O)N2CCC(F)(F)C2)c1)c1cccnc1N1CCC2(CC1)CC2` [Example 101-6, N-(3-((3,3-difluoropyrrolidin-1-yl)sulfonyl)phenyl)-2-(6-azaspiro[2.5]octan-6-yl)nicotinamide], for which the IC50 is 0.581 µM.

As for `CC1(NS(=O)(=O)c2cccc(NC(=O)c3cccnc3N3CCC4(CC3)CC4)c2)CC1` [Example 101-7, N-(3-(N-(1-methylcyclopropyl)sulfamoyl)phenyl)-2-(6-azaspiro[2.5]octan-6-yl)nicotinamide], the IC50 is 0.32 µM.

With `CC(C)(CF)NS(=O)(=O)c1cccc(NC(=O)c2cccnc2N2CCC3(CC2)CC3)c1` [Example 101-8, N-(3-(N-(1-fluoro-2-methylpropan-2-yl)sulfamoyl)phenyl)-2-(6-azaspiro[2.5]octan-6-yl)nicotinamide], the IC50 turned out to be 0.279 µM.

Turning to `O=C(Nc1cccc(S(=O)(=O)NC2CC(F)(F)C2)c1)c1cccnc1N1CCC2(CC1)CC2` [Example 101-9, N-(3-(N-(3,3-difluorocyclobutyl)sulfamoyl)phenyl)-2-(6-azaspiro[2.5]octan-6-yl)nicotinamide], the IC50 worked out at 0.474 µM.

Take `O=C(Nc1cccc(S(=O)(=O)Nc2ccc(F)cc2)c1)c1cccnc1N1CCC2(CC1)CC2` [Example 101-10, N-(3-(N-(4-fluorophenyl)sulfamoyl)phenyl)-2-(6-azaspiro[2.5]octan-6-yl)nicotinamide]: the IC50 was determined as 0.393 µM.

Consider `CC1(C)CCN(c2ccc(C(=O)Nc3cccc(S(=O)(=O)NC(C)(C)C)c3)c(N3CCC4(CC3)CC4)n2)C1` [Example 102-1, N-(3-(N-(tert-butyl)sulfamoyl)phenyl)-6-(3,3-dimethylpyrrolidin-1-yl)-2-(6-azaspiro[2.5]octan-6-yl)nicotinamide], for which the IC50 amounted to 0.196 µM.

For `CC(C)(C)NS(=O)(=O)c1cccc(NC(=O)c2ccc(N3CCC(F)(F)C3)nc2N2CCC3(CC2)CC3)c1` [Example 102-2, N-(3-(N-(tert-butyl)sulfamoyl)phenyl)-6-(3,3-difluoropyrrolidin-1-yl)-2-(6-azaspiro[2.5]octan-6-yl)nicotinamide], the IC50 stood at 0.302 µM.

With `CC(C)(C)NS(=O)(=O)c1cccc(NC(=O)c2ccc(N3CCCC3(C)C)nc2N2CCC3(CC2)CC3)c1` [Example 102-3, N-(3-(N-(tert-butyl)sulfamoyl)phenyl)-6-(2,2-dimethylpyrrolidin-1-yl)-2-(6-azaspiro[2.5]octan-6-yl)nicotinamide], the IC50 came out at 0.342 µM.

`CC(C)(C)NS(=O)(=O)c1cccc(NC(=O)c2ccc(N3CC[C@H](O)C3)nc2N2CCC3(CC2)CC3)c1` [Example 102-4, (S)-N-(3-(N-(tert-butyl)sulfamoyl)phenyl)-6-(3-hydroxypyrrolidin-1-yl)-2-(6-azaspiro[2.5]octan-6-yl)nicotinamide]: the IC50 came to 0.234 µM.

`CC(C)(C)NS(=O)(=O)c1cccc(NC(=O)c2ccc(N3C[C@H]4C[C@H]4C3)nc2N2CCC3(CC2)CC3)c1` [Example 102-5]: the IC50 came out at 0.191 µM.

Turning to `CC(C)(C)NS(=O)(=O)c1cccc(NC(=O)c2ccc(N3CC[C@@H]4C[C@@H]43)nc2N2CCC3(CC2)CC3)c1` [Example 102-6, 6-((1S,5R)-2-azabicyclo[3.1.0]hexan-2-yl)-N-(3-(N-(tert-butyl)sulfamoyl)phenyl)-2-(6-azaspiro[2.5]octan-6-yl)nicotinamide], the IC50 was found to be 0.2 µM.

Take `CC(C)(C)NS(=O)(=O)c1cccc(NC(=O)c2ccc(N3CCOCC3)nc2N2CCC3(CC2)CC3)c1` [Example 102-7, N-(3-(N-(tert-butyl)sulfamoyl)phenyl)-6-morpholino-2-(6-azaspiro[2.5]octan-6-yl)nicotinamide]: the IC50 came out at 0.238 µM.

Turning to `CC(C)(C)NS(=O)(=O)c1cccc(NC(=O)c2ccc(N3C[C@H]4C[C@@H]3CO4)nc2N2CCC3(CC2)CC3)c1` [Example 102-8, 6-((1R,4R)-2-oxa-5-azabicyclo[2.2.1]heptan-5-yl)-N-(3-(N-(tert-butyl)sulfamoyl)phenyl)-2-(6-azaspiro[2.5]octan-6-yl)nicotinamide], the IC50 turned out to be 0.104 µM.

Turning to `CC(C)(C)NS(=O)(=O)c1cccc(NC(=O)c2ccc(N3CC[C@H]4CC[C@@H]3O4)nc2N2CCC3(CC2)CC3)c1` [Example 102-9, 6-((1S,5R)-8-oxa-2-azabicyclo[3.2.1]octan-2-yl)-N-(3-(N-(tert-butyl)sulfamoyl)phenyl)-2-(6-azaspiro[2.5]octan-6-yl)nicotinamide], the IC50 came to 0.127 µM.

For `CC(C)(C)NS(=O)(=O)c1cccc(NC(=O)c2ccc(N3CCC3)nc2N2CCC3(CC2)CC3)c1` [Example 102-10, 6-(azetidin-1-yl)-N-(3-(N-(tert-butyl)sulfamoyl)phenyl)-2-(6-azaspiro[2.5]octan-6-yl)nicotinamide], the IC50 was 0.118 µM.

Consider `CC(C)(C)NS(=O)(=O)c1cccc(NC(=O)c2ccc(N3CC(C#N)C3)nc2N2CCC3(CC2)CC3)c1` [Example 102-11, N-(3-(N-(tert-butyl)sulfamoyl)phenyl)-6-(3-cyanoazetidin-1-yl)-2-(6-azaspiro[2.5]octan-6-yl)nicotinamide], for which the IC50 was found to be 0.159 µM.

`COC1CN(c2ccc(C(=O)Nc3cccc(S(=O)(=O)NC(C)(C)C)c3)c(N3CCC4(CC3)CC4)n2)C1` [Example 102-12, N-(3-(N-(tert-butyl)sulfamoyl)phenyl)-6-(3-methoxyazetidin-1-yl)-2-(6-azaspiro[2.5]octan-6-yl)nicotinamide]: the half-maximal inhibitory concentration (IC50) is 0.591 µM.

Turning to `CC1(O)CN(c2ccc(C(=O)Nc3cccc(S(=O)(=O)NC(C)(C)C)c3)c(N3CCC4(CC3)CC4)n2)C1` [Example 102-13, N-(3-(N-(tert-butyl)sulfamoyl)phenyl)-6-(3-hydroxy-3-methylazetidin-1-yl)-2-(6-azaspiro[2.5]octan-6-yl)nicotinamide], the IC50 was 0.196 µM.

For `CC(C)(C)NS(=O)(=O)c1cccc(NC(=O)c2ccc(N3CC(O)(C(F)(F)F)C3)nc2N2CCC3(CC2)CC3)c1` [Example 102-14, N-(3-(N-(tert-butyl)sulfamoyl)phenyl)-6-(3-hydroxy-3-(trifluoromethyl)azetidin-1-yl)-2-(6-azaspiro[2.5]octan-6-yl)nicotinamide], the IC50 was 0.28 µM.

`CC(C)(C)NS(=O)(=O)c1cccc(NC(=O)c2ccc(N3CC(S(C)(=O)=O)C3)nc2N2CCC3(CC2)CC3)c1` [Example 102-15, N-(3-(N-(tert-butyl)sulfamoyl)phenyl)-6-(3-(methylsulfonyl)azetidin-1-yl)-2-(6-azaspiro[2.5]octan-6-yl)nicotinamide]: the IC50 worked out at 0.182 µM.

As for `CC(C)(C)NS(=O)(=O)c1cccc(NC(=O)c2ccc(NC3CCC3)nc2N2CCC3(CC2)CC3)c1` [Example 102-16, N-(3-(N-(tert-butyl)sulfamoyl)phenyl)-6-(cyclobutylamino)-2-(6-azaspiro[2.5]octan-6-yl)nicotinamide], the half-inhibitory concentration (IC50) was 0.221 µM.

On to `CC(C)(C)NS(=O)(=O)c1cccc(NC(=O)c2ccc(NC3CC(F)(F)C3)nc2N2CCC3(CC2)CC3)c1` [Example 102-17, N-(3-(N-(tert-butyl)sulfamoyl)phenyl)-6-((3,3-difluorocyclobutyl)amino)-2-(6-azaspiro[2.5]octan-6-yl)nicotinamide], for which the IC50 came to 0.294 µM.

Regarding `CC(C)(C)NS(=O)(=O)c1cccc(NC(=O)c2ccc(N[C@@H]3CCC[C@H]3O)nc2N2CCC3(CC2)CC3)c1` [Example 102-18, N-(3-(N-(tert-butyl)sulfamoyl)phenyl)-6-(((1R,2R)-2-hydroxycyclopentyl)amino)-2-(6-azaspiro[2.5]octan-6-yl)nicotinamide], the IC50 is 0.107 µM.

As to `CC(C)(C)NS(=O)(=O)c1cccc(NC(=O)c2ccc(N[C@H]3CCC[C@H]3O)nc2N2CCC3(CC2)CC3)c1` [Example 102-19, N-(3-(N-(tert-butyl)sulfamoyl)phenyl)-6-(((1S,2R)-2-hydroxycyclopentyl)amino)-2-(6-azaspiro[2.5]octan-6-yl)nicotinamide], the IC50 was found to be 0.16 µM.

`CC(C)(C)NS(=O)(=O)c1cccc(NC(=O)c2ccc(N[C@H]3COC[C@@H]3O)nc2N2CCC3(CC2)CC3)c1` [Example 102-20, N-(3-(N-(tert-butyl)sulfamoyl)phenyl)-6-(((3S,4R)-4-hydroxytetrahydrofuran-3-yl)amino)-2-(6-azaspiro[2.5]octan-6-yl)nicotinamide]: the IC50 is 0.103 µM.

`CC(C)(C)NS(=O)(=O)c1cccc(NC(=O)c2ccc(N[C@@H]3CCOC3)nc2N2CCC3(CC2)CC3)c1` [Example 102-21, (R)-N-(3-(N-(tert-butyl)sulfamoyl)phenyl)-2-(6-azaspiro[2.5]octan-6-yl)-6-((tetrahydrofuran-3-yl)amino)nicotinamide]: the IC50 stood at 0.134 µM.

As for `CC(C)(C)NS(=O)(=O)c1cccc(NC(=O)c2ccc(N[C@@H]3CC[C@H](O)C3)nc2N2CCC3(CC2)CC3)c1` [Example 102-22, N-(3-(N-(tert-butyl)sulfamoyl)phenyl)-6-(((1R,3S)-3-hydroxycyclopentyl)amino)-2-(6-azaspiro[2.5]octan-6-yl)nicotinamide], the IC50 came to 0.116 µM.

Regarding `CC(C)(C)NS(=O)(=O)c1cccc(NC(=O)c2ccc(N[C@H]3CC[C@H](O)C3)nc2N2CCC3(CC2)CC3)c1` [Example 102-23, N-(3-(N-(tert-butyl)sulfamoyl)phenyl)-6-(((1S,3S)-3-hydroxycyclopentyl)amino)-2-(6-azaspiro[2.5]octan-6-yl)nicotinamide], the half-inhibitory concentration (IC50) is 0.185 µM.

By IC50 is commonly meant the concentration that gives 50% inhibition.
